Experimental data published in patent US20230079819A1, “COMPOUNDS AND USES THEREOF” (Foghorn Therapeutics Inc., priority 2019, published 2023).

What was measured:
BRG-1 = molecular target: T1, BRG-1 (Homo sapiens, UniProt P51532); test: ATPase catalytic activity of BRG-1, ADP-Glo in vitro biochemical assay; conditions: ATPase catalytic activity, 30 nM BRG-1, 400 μM ATP, read-out: BRG1 IP50 (μM)*
T1 construct: made in house; host or cells: High Five insect cells

BRM = molecular target: T2, BRM (Homo sapiens, UniProt P51531); test: ATPase catalytic activity of BRM, ADP-Glo in vitro biochemical assay; conditions: ATPase catalytic activity, 30 nM BRM, 400 μM ATP, read-out: BRM IP50 (μM)*
T2 construct: made in house; host or cells: High Five insect cells
T2 sequence (P51531 whole entry): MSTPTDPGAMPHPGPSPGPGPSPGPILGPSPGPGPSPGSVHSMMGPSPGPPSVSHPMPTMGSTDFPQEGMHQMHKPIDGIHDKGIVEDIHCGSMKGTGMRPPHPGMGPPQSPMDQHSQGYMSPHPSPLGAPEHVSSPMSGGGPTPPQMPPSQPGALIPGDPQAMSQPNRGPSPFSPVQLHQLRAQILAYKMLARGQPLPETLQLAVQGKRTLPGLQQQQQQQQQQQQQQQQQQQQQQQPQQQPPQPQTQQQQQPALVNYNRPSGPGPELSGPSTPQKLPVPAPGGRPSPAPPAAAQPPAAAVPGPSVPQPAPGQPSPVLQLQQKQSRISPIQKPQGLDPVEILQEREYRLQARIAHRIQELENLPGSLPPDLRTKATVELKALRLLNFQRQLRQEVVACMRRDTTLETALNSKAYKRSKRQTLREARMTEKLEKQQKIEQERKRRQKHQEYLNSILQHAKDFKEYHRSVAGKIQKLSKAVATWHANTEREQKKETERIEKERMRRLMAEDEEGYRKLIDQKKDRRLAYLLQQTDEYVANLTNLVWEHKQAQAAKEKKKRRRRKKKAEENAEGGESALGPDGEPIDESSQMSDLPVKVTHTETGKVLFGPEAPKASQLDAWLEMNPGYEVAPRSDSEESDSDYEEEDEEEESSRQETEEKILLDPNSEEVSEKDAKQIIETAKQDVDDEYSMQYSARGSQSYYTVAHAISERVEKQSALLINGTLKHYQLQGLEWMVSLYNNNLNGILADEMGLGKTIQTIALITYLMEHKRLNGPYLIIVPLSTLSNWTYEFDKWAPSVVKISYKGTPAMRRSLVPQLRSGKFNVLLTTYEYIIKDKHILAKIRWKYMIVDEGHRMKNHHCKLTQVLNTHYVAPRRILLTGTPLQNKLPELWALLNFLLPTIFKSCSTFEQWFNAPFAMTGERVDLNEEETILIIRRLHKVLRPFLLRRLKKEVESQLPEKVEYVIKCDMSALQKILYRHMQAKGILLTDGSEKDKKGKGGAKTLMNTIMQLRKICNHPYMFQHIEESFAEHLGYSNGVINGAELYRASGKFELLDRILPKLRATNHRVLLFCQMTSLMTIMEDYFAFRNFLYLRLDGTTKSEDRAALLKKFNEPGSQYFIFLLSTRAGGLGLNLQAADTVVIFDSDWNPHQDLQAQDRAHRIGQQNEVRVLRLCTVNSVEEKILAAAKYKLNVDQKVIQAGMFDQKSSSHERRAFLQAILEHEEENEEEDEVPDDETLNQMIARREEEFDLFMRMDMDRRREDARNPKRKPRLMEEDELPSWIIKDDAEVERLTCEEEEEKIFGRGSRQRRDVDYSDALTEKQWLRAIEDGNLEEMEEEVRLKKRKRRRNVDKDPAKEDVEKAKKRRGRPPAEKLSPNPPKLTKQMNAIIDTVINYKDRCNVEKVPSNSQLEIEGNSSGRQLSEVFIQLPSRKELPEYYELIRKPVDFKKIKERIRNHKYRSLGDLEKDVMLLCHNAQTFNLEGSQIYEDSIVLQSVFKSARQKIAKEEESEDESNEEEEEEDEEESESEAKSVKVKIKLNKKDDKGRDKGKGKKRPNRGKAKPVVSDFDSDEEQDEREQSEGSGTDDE

T1 sequence (P51532 whole entry): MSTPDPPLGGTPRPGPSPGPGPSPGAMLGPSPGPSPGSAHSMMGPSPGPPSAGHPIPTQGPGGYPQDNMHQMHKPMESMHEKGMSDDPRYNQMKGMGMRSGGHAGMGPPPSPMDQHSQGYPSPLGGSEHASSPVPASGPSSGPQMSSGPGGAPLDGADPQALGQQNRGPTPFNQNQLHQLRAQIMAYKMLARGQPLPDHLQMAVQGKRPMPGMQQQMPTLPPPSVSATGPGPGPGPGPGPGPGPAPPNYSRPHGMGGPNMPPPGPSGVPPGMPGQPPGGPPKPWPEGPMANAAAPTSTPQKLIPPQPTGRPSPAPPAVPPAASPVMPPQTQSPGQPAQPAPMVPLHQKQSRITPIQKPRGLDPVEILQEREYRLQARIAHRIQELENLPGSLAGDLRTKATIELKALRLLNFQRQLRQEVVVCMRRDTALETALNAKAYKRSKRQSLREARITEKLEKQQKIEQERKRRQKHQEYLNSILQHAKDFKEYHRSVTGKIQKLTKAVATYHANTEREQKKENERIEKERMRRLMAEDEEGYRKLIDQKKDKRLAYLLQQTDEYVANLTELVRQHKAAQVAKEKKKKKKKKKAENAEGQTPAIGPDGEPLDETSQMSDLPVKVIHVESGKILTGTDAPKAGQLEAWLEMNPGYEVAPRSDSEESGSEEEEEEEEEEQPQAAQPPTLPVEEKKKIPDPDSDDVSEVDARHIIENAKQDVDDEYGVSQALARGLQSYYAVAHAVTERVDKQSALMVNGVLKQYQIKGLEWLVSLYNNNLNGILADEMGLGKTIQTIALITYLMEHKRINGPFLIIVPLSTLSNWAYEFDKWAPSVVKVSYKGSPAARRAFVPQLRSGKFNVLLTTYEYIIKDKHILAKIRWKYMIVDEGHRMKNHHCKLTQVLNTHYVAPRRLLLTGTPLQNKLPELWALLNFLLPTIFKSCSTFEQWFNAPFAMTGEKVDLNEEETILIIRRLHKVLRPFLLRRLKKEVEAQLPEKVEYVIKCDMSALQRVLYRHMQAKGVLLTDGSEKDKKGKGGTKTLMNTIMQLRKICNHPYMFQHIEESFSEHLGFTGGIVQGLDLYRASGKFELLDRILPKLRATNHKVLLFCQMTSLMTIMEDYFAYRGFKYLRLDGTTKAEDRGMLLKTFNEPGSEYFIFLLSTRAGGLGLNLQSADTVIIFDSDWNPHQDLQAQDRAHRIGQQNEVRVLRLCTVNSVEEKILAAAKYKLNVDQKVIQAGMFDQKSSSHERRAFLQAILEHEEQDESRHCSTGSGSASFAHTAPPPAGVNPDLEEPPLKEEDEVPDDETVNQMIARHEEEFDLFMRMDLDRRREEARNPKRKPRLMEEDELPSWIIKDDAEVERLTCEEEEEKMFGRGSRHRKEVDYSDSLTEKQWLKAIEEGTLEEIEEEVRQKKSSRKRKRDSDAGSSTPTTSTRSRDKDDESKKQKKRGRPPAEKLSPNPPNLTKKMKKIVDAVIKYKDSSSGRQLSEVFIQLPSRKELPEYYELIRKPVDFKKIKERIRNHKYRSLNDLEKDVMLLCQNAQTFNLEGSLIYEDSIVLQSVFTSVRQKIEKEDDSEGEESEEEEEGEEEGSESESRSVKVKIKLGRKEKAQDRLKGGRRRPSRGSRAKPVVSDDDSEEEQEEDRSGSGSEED

Structure (SMILES)	IC50 (BRG-1) [µM]	IC50 (BRM) [µM]
CN1CCC(OCc2cccc(-c3csc(NC(=O)CNC(=O)c4ccn(C(C)(C)C)c4)n3)c2)C(F)(F)C1 (stereo not drawn) [Compound 128, 1-(tert-butyl)-N-(2-((4-(3-(((3,3-difluoro-1-methylpiperidin-4-yl)oxy)methyl)phenyl)thiazol-2-yl)amino)-2-oxoethyl)-1H-pyrrole-3-carboxamide]	> 0.1	> 0.1
CN1CCc2cc(-c3csc(NC(=O)CNC(=O)c4ccn(S(C)(=O)=O)c4)n3)ccc2C1 [Compound 130, N-(2-((4-(2-methyl-1,2,3,4-tetrahydroisoquinolin-6-yl)thiazol-2-yl)amino)-2-oxoethyl)-1-(methylsulfonyl)-1H-pyrrole-3-carboxamide]	> 0.1	> 0.1
Cn1ncc2ccc(-c3csc(NC(=O)CNC(=O)c4ccn(C(C)(C)C)c4)n3)cc21 [Compound 131, 1-(tert-butyl)-N-(2-((4-(1-methyl-1H-indazol-6-yl)thiazol-2-yl)amino)-2-oxoethyl)-1H-pyrrole-3-carboxamide]	> 0.1	> 0.01
Cn1c(=O)ccc2ccc(-c3csc(NC(=O)CNC(=O)c4ccn(C(C)(C)C)c4)n3)cc21 [Compound 133, 1-(tert-butyl)-N-(2-((4-(1-methyl-2-oxo-1,2-dihydroquinolin-7-yl)thiazol-2-yl)amino)-2-oxoethyl)-1H-pyrrole-3-carboxamide]	> 0.1	> 0.1
CN1Cc2ccc(-c3csc(NC(=O)CNC(=O)c4ccn(C(C)(C)C)c4)n3)cc2N(C)C1=O [Compound 134, 1-(tert-butyl)-N-(2-((4-(1,3-dimethyl-2-oxo-1,2,3,4-tetrahydroquinazolin-7-yl)thiazol-2-yl)amino)-2-oxoethyl)-1H-pyrrole-3-carboxamide]	> 0.1	> 0.01
CS(=O)(=O)n1ccc(C(=O)NCC(=O)Nc2nc(-c3cccc(C4(N)CCOCC4)c3)cs2)c1 [Compound 138, N-(2-((4-(3-(4-aminotetrahydro-2H-pyran-4-yl)phenyl)thiazol-2-yl)amino)-2-oxoethyl)-1-(methylsulfonyl)-1H-pyrrole-3-carboxamide]	> 1	> 1
CC(C)(O)c1cccc(-c2csc(NC(=O)CNC(=O)c3ccn(S(C)(=O)=O)c3)n2)c1 [Compound 139, N-(2-((4-(3-(2-hydroxypropan-2-yl)phenyl)thiazol-2-yl)amino)-2-oxoethyl)-1-(methylsulfonyl)-1H-pyrrole-3-carboxamide]	> 0.1	> 0.1
CC(C)(C)c1cccc(-c2csc(NC(=O)CNC(=O)c3ccn(S(C)(=O)=O)c3)n2)c1 [Compound 140, N-(2-((4-(3-(tert-butyl)phenyl)thiazol-2-yl)amino)-2-oxoethyl)-1-(methylsulfonyl)-1H-pyrrole-3-carboxamide]	> 0.1	> 0.1
CS(=O)(=O)n1ccc(C(=O)NCC(=O)Nc2nc(-c3cccc(C4(O)CCOCC4)c3)cs2)c1 [Compound 141, N-(2-((4-(3-(4-hydroxytetrahydro-2H-pyran-4-yl)phenyl)thiazol-2-yl)amino)-2-oxoethyl)-1-(methylsulfonyl)-1H-pyrrole-3-carboxamide]	> 0.1	> 0.1
CC(C)(C)n1ccc(C(=O)NCC(=O)Nc2nc(-c3ccc4cncnc4c3)cs2)c1 [Compound 142]	> 0.1	> 0.1
CN1CCn2nc(-c3cccc(-c4csc(NC(=O)CNC(=O)c5ccn(C(C)(C)C)c5)n4)c3)cc2C1 [Compound 143, 1-(tert-butyl)-N-(2-((4-(3-(5-methyl-4,5,6,7-tetrahydropyrazolo[1,5-a]pyrazin-2-yl)phenyl)thiazol-2-yl)amino)-2-oxoethyl)-1H-pyrrole-3-carboxamide]	> 0.1	> 0.1
CS(=O)(=O)n1ccc(C(=O)NCC(=O)Nc2nc(-c3c[nH]c(-c4ccncc4)n3)cs2)c1 [Compound 146, 1-(methylsulfonyl)-N-(2-oxo-2-((4-(2-(pyridin-4-yl)-1H-imidazol-4-yl)thiazol-2-yl)amino)ethyl)-1H-pyrrole-3-carboxamide]	> 1	> 1
CN(C(=O)CNC(=O)c1ccn(S(C)(=O)=O)c1)c1nc(-c2cccc(-c3ccncc3)c2)cs1 [Compound 152]	> 0.1	> 0.1
CC(C)(NC(=O)c1ccn(S(C)(=O)=O)c1)C(=O)Nc1nc(-c2cccc(-c3ccncc3)c2)cs1 [Compound 153]	> 0.1	> 0.1
CC1(C)OCC12CN(c1cccc(-c3csc(NC(=O)CNC(=O)c4ccn(S(C)(=O)=O)c4)n3)c1)C2 [Compound 157]	> 0.1	> 0.1
C[C@H]1CN(c2cccc(-c3csc(NC(=O)CNC(=O)c4ccn(S(C)(=O)=O)c4)n3)c2)[C@@H](C)CO1 [Compound 160]	> 0.1	> 0.01

Results, then the molecule that gave them:

IC50 (BRG-1) [µM]	IC50 (BRM) [µM]	Structure (SMILES)
> 0.1	> 0.01	CC(OC1CCOCC1)c1cccc(-c2csc(NC(=O)CNC(=O)c3ccn(C(C)(C)C)c3)n2)c1 (stereo not drawn) [Compound 126, 1-(tert-butyl)-N-(2-oxo-2-((4-(3-(1-((tetrahydro-2H-pyran-4-yl)oxy)ethyl)phenyl)thiazol-2-yl)amino)ethyl)-1H-pyrrole-3-carboxamide]
> 0.1	> 0.1	CN1CCC(OCc2cccc(-c3csc(NC(=O)CNC(=O)c4ccn(C(C)(C)C)c4)n3)c2)CC1 [Compound 127, 1-(tert-butyl)-N-(2-((4-(3-(((1-methylpiperidin-4-yl)oxy)methyl)phenyl)thiazol-2-yl)amino)-2-oxoethyl)-1H-pyrrole-3-carboxamide]
> 0.01	> 0.01	CC(C)(C)n1ccc(C(=O)NCC(=O)Nc2nc(-c3cccc(COC4CCOC4)c3)cs2)c1 (stereo not drawn) [Compound 129, 1-(tert-butyl)-N-(2-oxo-2-((4-(3-(((tetrahydrofuran-3-yl)oxy)methyl)phenyl)thiazol-2-yl)amino)ethyl)-1H-pyrrole-3-carboxamide]
> 0.01	> 0.01	Cn1ncc2ccc(-c3csc(NC(=O)CNC(=O)c4ccn(S(C)(=O)=O)c4)n3)cc21 [Compound 132, N-(2-((4-(1-methyl-1H-indazol-6-yl)thiazol-2-yl)amino)-2-oxoethyl)-1-(methylsulfonyl)-1H-pyrrole-3-carboxamide]
> 0.01	> 0.01	CC(C)(C)n1ccc(C(=O)NCC(=O)Nc2nc(-c3cccc(CO[C@H]4CCOC4)c3)cs2)c1 [Compound 135, (S)-1-(tert-butyl)-N-(2-oxo-2-((4-(3-(((tetrahydrofuran-3-yl)oxy)methyl)phenyl)thiazol-2-yl)amino)ethyl)-1H-pyrrole-3-carboxamide]
> 0.01	> 0.01	CC(C)(C)n1ccc(C(=O)NCC(=O)Nc2nc(-c3cccc(CO[C@@H]4CCOC4)c3)cs2)c1 [Compound 136, (R)-1-(tert-butyl)-N-(2-oxo-2-((4-(3-(((tetrahydrofuran-3-yl)oxy)methyl)phenyl)thiazol-2-yl)amino)ethyl)-1H-pyrrole-3-carboxamide]
< 0.01	> 0.01	CN1CCc2ccc(-c3csc(NC(=O)CNC(=O)c4ccn(S(C)(=O)=O)c4)n3)cc2C1=O [Compound 137, N-(2-((4-(2-methyl-1-oxo-1,2,3,4-tetrahydroisoquinolin-7-yl)thiazol-2-yl)amino)-2-oxoethyl)-1-(methylsulfonyl)-1H-pyrrole-3-carboxamide]
> 0.01	> 0.01	Cn1ccc(-c2cccc(-c3csc(NC(=O)CNC(=O)c4ccn(C5(C)COC5)c4)n3)c2)n1 [Compound 144]
> 0.01	> 0.01	Cn1ccc(-c2cccc(-c3csc(NC(=O)CNC(=O)c4ccn(C(C)(C)C)c4)n3)n2)n1 [Compound 145]
> 0.01	< 0.01	CS(=O)(=O)n1ccc(C(=O)NCC(=O)Nc2nc(-c3cccc(OCc4ccncc4)n3)cs2)c1 [Compound 147]
< 0.01	< 0.01	CS(=O)(=O)n1ccc(C(=O)NCC(=O)Nc2nc(-c3cccc(/C=C/c4ccncc4)c3)cs2)c1 [Compound 150]
< 0.01	< 0.01	CS(=O)(=O)n1ccc(C(=O)NCC(=O)Nc2nc(-c3cccc(CCc4ccncc4)c3)cs2)c1 [Compound 151, 1-(methylsulfonyl)-N-(2-oxo-2-((4-(3-(2-(pyridin-4-yl)ethyl)phenyl)thiazol-2-yl)amino)ethyl)-1H-pyrrole-3-carboxamide]
< 0.01	< 0.01	Cc1cc(-c2cccc(-c3csc(NC(=O)CNC(=O)c4ccn(S(C)(=O)=O)c4)n3)c2)ccn1 [Compound 154]
> 0.01	> 0.01	CS(=O)(=O)n1ccc(C(=O)NCC(=O)Nc2cccc(-c3cccc(-c4ccncc4)c3)n2)c1 [Compound 156, 1-(methylsulfonyl)-N-(2-oxo-2-((6-(3-(pyridin-4-yl)phenyl)pyridin-2-yl)amino)ethyl)-1H-pyrrole-3-carboxamide]
> 0.01	> 0.01	CO[C@@H]1CCCN(c2cccc(-c3csc(NC(=O)CNC(=O)c4ccn(S(C)(=O)=O)c4)n3)c2)C1 [Compound 161]
< 0.01	< 0.01	C[C@@H]1CN(c2cccc(-c3csc(NC(=O)CNC(=O)c4ccn(C(C)(C)C#N)c4)n3)c2)C[C@H](C)O1 [Compound 162]
> 0.01	< 0.01	C[C@@H]1CN(c2cccc(-c3csc(NC(=O)CNC(=O)c4ccn(C5(C#N)CC5)c4)n3)c2)C[C@H](C)O1 [Compound 163]
> 0.01	< 0.01	CC1(C)CN(c2cccc(-c3csc(NC(=O)CNC(=O)c4ccn(S(C)(=O)=O)c4)n3)c2)CC[C@H]1O [Compound 164]
> 0.01	> 0.01	CC1(C)CN(c2cccc(-c3csc(NC(=O)CNC(=O)c4ccn(S(C)(=O)=O)c4)n3)c2)CC[C@@H]1O [Compound 165]
> 0.01	> 0.01	CO[C@@H]1CN(c2cccc(-c3csc(NC(=O)CNC(=O)c4ccn(S(C)(=O)=O)c4)n3)c2)C[C@H]1F [Compound 168]
